Measurements: patent US5023359A, “Use of organic salts of copper for the treatment of honeybee's parasitic diseases” (priority 1990, dated 1991)
Entries after “also recorded” stand apart in the source; their conditions may differ.

What was measured:
honeybees [1] = assay: Biological activity / metabolism of honeybees and productivity of hives; conditions: in vivo
honeybees [2] = assay: Appetency of the honeybees (consumption of syrup in small cases, batches of 100 honeybees); type: in vivo; conditions: for Appetency, absolute value / Appetency, 1/1 COPPER GLUCONATE: with pollen, mean ± SD; for Appetency, absolute value: pure sugar syrup 21.13±6.31; for Appetency, 1/1 COPPER GLUCONATE: 1/1 with copper gluconate; for Appetency, RELATIVE VALUES / PURE SUGAR SYRUP, AVERAGE / Appetency, RELATIVE VALUES / PURE SUGAR SYRUP, TEST 1 / Appetency, RELATIVE VALUES / PURE SUGAR SYRUP, TEST 2: relative to pure sugar syrup; for Appetency, RELATIVE VALUES / PURE SUGAR SYRUP, AVERAGE: average of tests; for Appetency, RELATIVE VALUES / PURE SUGAR SYRUP, TEST 1: test 1 (first concentration tested); for Appetency, RELATIVE VALUES / PURE SUGAR SYRUP, TEST 2: test 2 (second concentration tested)
Text: It should be noted that the pollen has been made available to the honeybees in a sufficient amount inside the small cases, without being admixed to the syrup. The determinations have been performed every day and the length of the vertical bars of the diagrams hereabove, are proportional to the deviation of the observed results. They evidence a clearly higher […] case of the utilization of the compounds of this invention. […] The results of these tests are gathered in Table 7 hereinafter in which the figures correspond to measures performed on honeybees placed in small cases, having pollen to their disposal, and are means expressed in microliters per honeybee and per day for N countings.

Solubility in water = conditions: for water solubility: 20° C.
honeybees [3] = assay: Phagoinhibitive action on food intake by the honeybees (small cases, 100 honeybees, syrup with copper sulphate); type: in vivo; conditions: FIG. 1; absorption in ml/bee/day vs g/l copper sulphate
Text: The obtained results as shown under FIG. 1 have been obtained from studies carried out in the laboratory, on batches of 100 honeybees each, located in small coops called small cases (logettes) in the absence of queen bees. The feeding made available to the honeybees, is placed in a graduated tube which allows the measurement of the ingested amount every day. The experiments have been carried out simultaneously with various small cases each receiving for the feeding of the honeybees a syrup of sucrose at 2 kg for 1 l water (i.e. 66% weight/weight) containing variable amounts of copper sulphate.

Varroa jacobsoni = assay: Action against Varroa jacobsoni in full-size hives: counting of fallen/remaining Varroas, efficiency; type: in vivo; conditions: for FALL OF THE VARROAS: 4 hives, mean ± SD
Experimental: Each hive was provided at its lower part with a plastic plate coated with a consistent grease. Each day at the same time, the plate was discarded and the counting of the Varroas fallen on the plate, was carried out. A grid surmounting this plate avoid that the honeybees may spontaneously proceed with the discharge of the Varroas.
The results shown in FIG. 2 have been obtained following experiments performed at full size in hives containing from 20,000 to 50,000 honeybees.
2°--The efficiency of the treatment has been defined as the ratio between the number of Varroas subsiding in the various colonies of an apiary after treatment by solutions at various concentrations, and the number of Varroas contained in the control hives, these two figures have been measured after treatment with Amitraze.
This experiment has been carried out in a series of 14 hives and the result thereof are compiled in the Table 3 figuring herein after.
These experiments allow to obtain the results of Table 3 above, and were carried out in full size on a set of 14 hives.
Measurements of the falls of the Varroas have been performed, at first, every day then every three days starting from the initiation of the delivery of the syrup.
To this end, a plate coated with a consistent grease was arranged at the bottom of each hive and protected with a grid as above-mentioned, in order to allow the counting of the Varroas. The fall begins to be significative in relation to the control hives which have only been given pure sugar syrup, after absorption by the honeybees of 3 liters of syrup per hive in 10 days.
The counting of the remaining Varroas has been performed 2 days after the last delivery of syrup while submitting each hive to a treatment of shock by means of an acaricide (in these circumstances the marketed composition sold under the Tread Name AMITRAZE).
The averages and the standard deviations have been calculated for the number of performed measures corresponding to the number of hives, this figure being mentioned between hyphens following the figures of the third column in Table 3.

Trehalases = assay: Activity of trehalases in the hemolymph of honeybees after ingestion; type: in vivo; conditions: FIGS. 8A-8D, 9A-9B, 10B, listed as copper glyconate
Text: (§1) These diagrams evidence the action of copper glyconate on the glycosemia of the honeybees after ingestion of increasing doses of this product.
(§2) FIG. 9A corresponds to experiments performed without administration of an inhibitor of trehalases
(§3) FIG. 9B is with administration of such an inhibitor.
(§4) FIG. 10A further evidences the variation of the glucosemia in the honeybees following the ingestion of copper glyconate.

[4] = test system: glycosemia in the honeybees; assay: Glycosemia / glucose in the hemolymph of honeybees after ingestion; type: in vivo; conditions: FIGS. 8A-8D, 9A-9B, 10A
Text: as §1, §2, §3, §4

honeybees [5] = conditions: in vivo
Experimental: The determination of the amounts of copper inside the bodies of the honeybees is performed through atomic absorption on samples of 5 honeybees after crushing and centrifuging them, and analysis of the supernatant liquid.

honeybees [6] = assay: Lethality / noxiousness for the honeybees; conditions: 6.75 l of syrup per hive, 0.02 to 0.5 g/l copper gluconate
honeybees [7] = assay: Acceptance of treated syrup by honeybees in full-size hives; type: in vivo; conditions: syrup of sucrose 66% w/w with copper gluconate

| Compound | supplemental effects: production of honey, activity of cleaning the hives (honeybees [1]) | Appetency, absolute value (honeybees [2]; 0,44 M.M.) | Appetency, absolute value (honeybees [2]; 1,1 M.M.) | Appetency, 1/1 COPPER GLUCONATE (honeybees [2]) | Appetency, RELATIVE VALUES / PURE SUGAR SYRUP, AVERAGE (honeybees [2]) | Appetency, RELATIVE VALUES / PURE SUGAR SYRUP, TEST 1 (honeybees [2]) | Appetency, RELATIVE VALUES / PURE SUGAR SYRUP, TEST 2 (honeybees [2]) | further results |
| --- | --- | --- | --- | --- | --- | --- | --- | --- |
| Copper gluconate/glutamate | A similar effect has been shown | – | – | – | – | – | – | – |
| Copper 1-glutamate | – | 16,18 ± 4,66 microliters per honeybee and p | 16,64 ± 7,97 microliters per honeybee and p | 11,56 ± 6,32 microliters per honeybee and p | 77,6% | 76,5% | 78,7% | – |
| Copper Asparaginate | – | 15,48 ± 4,32 microliters per honeybee and p | 11,97 ± 3,34 microliters per honeybee and p | 12,21 ± 4,29 microliters per honeybee and p | 65,0% | 73,2% | 56,3% | water solubility (Solubility in water): 0,5% |
| Copper 1-aspartate | – | – | – | – | 55,1% | 76,5% | 69,4% | Appetency, absolute value (honeybees [2]; 0,61 M.M.): 17,96 ± 7,20 microliters per honeybee and p; Appetency, absolute value (honeybees [2]; 1,54 M.M.): 14,68 ± 5,40 microliters per honeybee and p; Appetency, absolute value (honeybees [2]; 2,4 M.M.): 12,49 ± 5,11 microliters per honeybee and p |
| Copper isoleucinate | – | – | – | – | 71,55% | 78,9% | 64,2% | Appetency, absolute value (honeybees [2]; 0,61 M.M.): 16,69 ± 5,03 microliters per honeybee and p; Appetency, absolute value (honeybees [2]; 1,54 M.M.): 13,57 ± 5,77 microliters per honeybee and p; Appetency, absolute value (honeybees [2]; 2,4 M.M.): 13,79 ± 5,73 microliters per honeybee and p; water solubility (Solubility in water): 1% |
| COPPER CITRATE | – | 14,71 ± 4,25 microliters per honeybee and p | 12,67 ± 3,96 microliters per honeybee and p | 12,67 ± 3,96 microliters per honeybee and p | 64,75% | 69,5% | 60,0% | – |
| O=S(=O)([O-])[O-].[Cu+2] [copper sulphate] | – | – | – | – | – | – | – | phagoinhibitive (anorectic) action on food intake (honeybees [3]): phagoinhibitive action |
| Copper glucoheptonate | A similar effect has been shown | 15,68 ± 2,35 microliters per honeybee and p | 14,58 ± 3,16 microliters per honeybee and p | 14,90 ± 3,64 microliters per honeybee and p | 71,6% | 74,2% | 69,0% | water solubility (in words) (Solubility in water): very soluble |
| CC(O)C(=O)[O-].CC(O)C(=O)[O-].[Cu+2] (stereo not drawn) [Copper lactate] | – | 15,30 ± 4,24 microliters per honeybee and p | 15,60 ± 4,34 microliters per honeybee and p | 10,95 ± 3,54 microliters per honeybee and p | 73,6% | 72,4% | 73,8% | – |
| Copper gluconate | increases the production of honey | 22,3 ± 2,5 microliters per honeybee and p | 21,2 ± 2,6 microliters per honeybee and p | – | – | – | – | FALL OF THE VARROAS (Varroa jacobsoni; 0,2 g/l copper gluconate in syrup): 165,5 ± 84,1; FALL OF THE VARROAS (Varroa jacobsoni; 0,5 g/l copper gluconate in syrup): 207 ± 172; FALL OF THE VARROAS (Varroa jacobsoni; 1 g/l copper gluconate in syrup): 109 ± 141; destroying of the Varroas (in words) (Varroa jacobsoni; in vivo): efficient even at low doses; syrup absorbed per hive when fall of Varroas begins to be significative vs control hives (Varroa jacobsoni; per hive, in 10 days): 3 L; appetency of the honeybees (in words) (honeybees [2]; sucrose syrup 66% w/w, FIGS. 7A-7C, comparison with copper sulphate): great appentency of the honeybees; activity / concentration of trehalases in the hemolymph (Trehalases): increase of the activity of the Trehalases; also recorded: increase in the concentration of glucose and trehalases in the hemolymph; glycosemia / concentration of glucose in the hemolymph of the honeybees [4]: a momentaneous and significative increase of the glycosemia in the honeybees; glycosemia / concentration of glucose in the hemolymph of the honeybees ([4]; listed as copper glyconate): increase in the concentration of glucose; storage of copper inside the body of the honeybees (honeybees [5]): does not incur any storage of copper inside the body of the honeybees; percentage of lethality in the honeybees compared to controls (honeybees [6]): no increase in the percentage of lethality in the honeybees; supplemental effects: production of honey, activity of cleaning the hives (honeybees [1]; listed as copper glyconate): increase in the activity of cleaning the hives; ingestion of the syrup by the honeybees in hives (honeybees [7]): The whole amount of syrup made available to the honeybees was absorbed every day; also recorded: totally ingested |
| Copper gluconate/glucoheptonate | A similar effect has been shown | – | – | – | – | – | – | – |
| Copper leucinate | – | 15,83 ± 4,53 microliters per honeybee and p | 13,02 ± 2,42 microliters per honeybee and p | 13,02 ± 2,42 microliters per honeybee and p | 67,8% | 74,0% | 61,6% | water solubility (Solubility in water): 1% |
| NCC(=O)[O-].NCC(=O)[O-].[Cu+2] [Copper glycinate] | – | 16,65 ± 5,01 microliters per honeybee and p | 15,5 ± 5,03 microliters per honeybee and p | 14,30 ± 3,52 microliters per honeybee and p | 75,85% | 78,0% | 73,7% | – |
